Data as given in article PMC4256409, “Role of Phenylalanine and Valine^10 Residues in the Antimicrobial Activity and Cytotoxicity of Piscidin-1” (PLoS ONE, 2014).
Where no end group is shown, it is not given here.

Legend:
[1] = tested on: MDRAB CCARM 12036; assay type: cell-based, multidrug-resistant Acinetobacter baumanii; details: broth microdilution, 37°C, 16 h, three independent experiments in triplicate, SD 14.0%
[2] = tested on: MDRAB CCARM 12037; assay type: cell-based, multidrug-resistant Acinetobacter baumanii; details: broth microdilution, 37°C, 16 h, three independent experiments in triplicate, SD 14.0%
[3] = tested on: MDRPA CCARM 2095; assay type: cell-based, multidrug-resistant P. aeruginosa; details: broth microdilution, 37°C, 16 h, three independent experiments in triplicate, SD 14.0%
[4] = tested on: Standard bacterial strains; assay type: cell-based; details: average over the 14 standard bacterial strains of Table 2
[5] = tested on: E. coli KCTC2593; assay type: cell-based, Escherichia coli; details: KCTC2593, 16 h
[6] = tested on: MDRST CCARM 8003; assay type: cell-based, multidrug-resistant S. typhimurium; details: broth microdilution, 37°C, 16 h, three independent experiments in triplicate, SD 14.0%
[7] = tested on: MRSA CCARM 3114; assay type: cell-based, Methicillin-resistant S. aureus; details: CCARM 3114, 16 h
[8] = tested on: P. aeruginosa KCTC1637; assay type: cell-based, Pseudomonas aeruginosa; details: KCTC1637, 16 h
[9] = tested on: E. coli KCTC1682; assay type: cell-based, Escherichia coli; details: KCTC1682, 16 h
[10] = tested on: S. aureus KCTC1621; assay type: cell-based, Staphylococcus aureus; details: KCTC1621, 16 h
[11] = tested on: B. subtilis KCTC1022; assay type: cell-based, Bacillus subtilis; details: KCTC1022, 16 h
[12] = tested on: MDREC CCARM 1238; assay type: cell-based, multidrug-resistant E. coli; details: broth microdilution, 37°C, 16 h, three independent experiments in triplicate, SD 14.0%
[13] = tested on: B. subtilis KCTC1021; assay type: cell-based, Bacillus subtilis; details: KCTC1021, 16 h
[14] = tested on: MDRAB CCARM 12035; assay type: cell-based, multidrug-resistant Acinetobacter baumanii; details: broth microdilution, 37°C, 16 h, three independent experiments in triplicate, SD 14.0%
[15] = tested on: S. epidermidis KCTC1917; assay type: cell-based, Staphylococcus epidermidis; details: KCTC1917, 16 h
[16] = tested on: Drug-resistant bacterial strains; details: average over the 18 drug-resistant bacterial strains of Table 3
Description: Escherichia coli KCTC 1682, E. coli KCTC 2593, E. coli KCTC 2571, Salmonella typhimurium KCTC 1926, Pseudomonas aeruginosa KCTC 1637, P. aeruginosa KCTC 2004, P. aeruginosa KCTC 2513, Bacillus subtilis KCTC 3068, B. subtilis KCTC 1021, B. subtilis KCTC 1022, Staphylococcus epidermidis KCTC 1917, Staphylococcus aureus KCTC 1621, S. aureus KCTC 1916, and S. aureus KCTC 3881 were purchased from the Korean Collection for Type Cultures, Korea Research Institute of Bioscience & Biotechnology (Taejon, Korea). Methicillin-resistant S. aureus (MRSA) (CCARM 3089, CCARM 3090, CCARM 3108, CCARM 3114, and CCARM 3126), multidrug-resistant E. coli (MDREC) (CCARM 1229 and CCARM 1238), multidrug-resistant S. typhimurium (MDRST) (CCARM 8003, CCARM 8007, and CCARM 8009), multidrug-resistant Acinetobacter baumanii (MDRAB) (CCARM 12005, CCARM 12035, CCARM 12036, CCARM 12037), and multidrug-resistant P. aeruginosa (MDRPA) (CCARM 2002, CCARM 2003, CCARM 2095, and CCARM 2163) were obtained from the Culture Collection of Antibiotic-Resistant Microbes (CCARM) at Seoul Women’s University in Korea. The antimicrobial activities of the peptides against selected organisms, including three Gram-positive, three Gram-negative, and five antibiotic-resistant bacteria, were determined using a broth microdilution assay. Briefly, single colonies of bacteria and fungi were inoculated into Luria-Bertani (LB) medium and cultured overnight at 37°C. An aliquot of the culture was transferred to 10 mL of fresh LB and incubated for an additional 3–5 h at 37°C until it reached the mid-logarithmic phase. Two-fold serial dilutions of the peptides in 1% peptone were prepared. The serial dilutions (100 µL) were added to 100 µL of cells (2×10^6 colony-forming units (CFU)/mL) in 96-well microtiter plates and incubated at 37°C for 16 h. […] MIC values were calculated as the average of triplicate measurements from three independent assays.

[17] = tested on: MDRPA CCARM 2003; assay type: cell-based, multidrug-resistant P. aeruginosa; details: broth microdilution, 37°C, 16 h, three independent experiments in triplicate, SD 14.0%
[18] = tested on: MRSA CCARM 3126; assay type: cell-based, Methicillin-resistant S. aureus; details: CCARM 3126, 16 h
[19] = tested on: MDRST CCARM 8009; assay type: cell-based, multidrug-resistant S. typhimurium; details: broth microdilution, 37°C, 16 h, three independent experiments in triplicate, SD 14.0%
[20] = tested on: MDRAB CCARM 12005; assay type: cell-based, multidrug-resistant Acinetobacter baumanii; details: broth microdilution, 37°C, 16 h, three independent experiments in triplicate, SD 14.0%
[21] = tested on: MDRST CCARM 8007; assay type: cell-based, multidrug-resistant S. typhimurium; details: broth microdilution, 37°C, 16 h, three independent experiments in triplicate, SD 14.0%
[22] = tested on: P. aeruginosa KCTC2513; assay type: cell-based, Pseudomonas aeruginosa; details: KCTC2513, 16 h
[23] = tested on: MRSA CCARM 3090; assay type: cell-based, Methicillin-resistant S. aureus; details: CCARM 3090, 16 h
[24] = tested on: S. typhimurium KCTC1926; assay type: cell-based, Salmonella typhimurium; details: KCTC1926, 16 h
[25] = tested on: MRSA CCARM 3108; assay type: cell-based, Methicillin-resistant S. aureus; details: CCARM 3108, 16 h
[26] = tested on: MRSA CCARM3089; assay type: cell-based, Methicillin-resistant S. aureus; details: CCARM3089, 16 h
[27] = tested on: MDRPA CCARM 2002; assay type: cell-based, multidrug-resistant P. aeruginosa; details: broth microdilution, 37°C, 16 h, three independent experiments in triplicate, SD 14.0%
[28] = tested on: B. subtilis KCTC3068; assay type: cell-based, Bacillus subtilis; details: KCTC3068, 16 h
[29] = tested on: MDRPA CCARM 2163; assay type: cell-based, multidrug-resistant P. aeruginosa; details: broth microdilution, 37°C, 16 h, three independent experiments in triplicate, SD 14.0%
[30] = tested on: S. aureus KCTC3881; assay type: cell-based, Staphylococcus aureus; details: KCTC3881, 16 h
[31] = tested on: MDREC CCARM 1229; assay type: cell-based, multidrug-resistant E. coli; details: broth microdilution, 37°C, 16 h, three independent experiments in triplicate, SD 14.0%
[32] = tested on: S. aureus KCTC1916; assay type: cell-based, Staphylococcus aureus; details: KCTC1916, 16 h
[33] = tested on: P. aeruginosa KCTC2004; assay type: cell-based, Pseudomonas aeruginosa; details: KCTC2004, 16 h
[34] = tested on: E.coli KCTC2571; assay type: cell-based, Escherichia coli; details: KCTC2571, 16 h
[35] = tested on: NIH3T3 cells; assay: Cytotoxicity, MTT assay; assay type: cell-based, mouse; details: 1 d
Method: The mouse embryonic fibroblast-derived cell line NIH3T3 was purchased from the American Type Culture Collection (Manassas, VA). Cells were cultured in Dulbecco’s modified Eagle medium (DMEM) supplemented with 10% fetal bovine serum (FBS) and antibiotic solution (100 units/mL penicillin and 100 µg/mL streptomycin) at 37°C in a humidified 5% CO2 atmosphere. Cultures were passaged every 2–3 days by brief trypsin treatment and visualized with an inverted microscope. The cytotoxicity of peptides against mammalian cells was determined using a 3-(4,5-dimethylthiazol-2-yl)-2,5-diphynyltetrazolium bromide (MTT) assay. Cells were seeded on 96-well microplates at a density of 1×10^4 cells/well in 100 µL of DMEM containing 10% FBS and 1% antibiotics, and […]. Plates were incubated for 24 h at 37°C in 5% CO2. Serial 2-fold dilutions of peptide solutions (100 µL) in DMEM were added; wells containing cells without peptides served as controls. After incubating plates for 1 d, 20 µL of MTT solution (5 mg/mL) was added to each well, and the plates were incubated for an additional 4 h at 37°C. Precipitated MTT formazan was dissolved by adding 100 µL of dimethyl sulfoxide. Absorbance at 570 nm was measured using an enzyme-linked immunosorbent assay (ELISA) reader (Molecular Devices; Sunnyvale, CA). Cell survival, expressed as a percentage, was calculated as the ratio of A570 for cells treated with peptide to that of cells without peptide treatment.

[36] = tested on: human red blood cells (hRBCs); assay: Hemolysis; assay type: cell-based
Method: The hemolytic ability of the peptides was tested using hRBCs. FreshhRBCs were washed three times with phosphate-buffered saline (PBS) (35 mM phosphate buffer containing 150 mM NaCl, pH 7.4), centrifuged for 10 min at 1000×g, and resuspended in PBS. The peptide solutions were then added to 50 µL of hRBCs in PBS to yield a final volume of 100 µL and a final erythrocyte concentration of 4% (v/v). The resulting suspension was incubated with agitation for 1 h at 37°C. The samples were centrifuged at 1000×g for 5 min. Hemoglobin release was monitored by measuring the absorbance of the supernatant at 405 nm. Controls for zero hemolysis (blank) and 100% hemolysis consisted of hRBCs suspended in PBS and 0.1% Triton-X 100, respectively. The percentage of hemolysis was calculated using the following equation: [drawing 1]

Row | Sequence | MIC [1] [µM] | MIC [2] [µM] | MIC [3] [µM] | Average MIC [4] [µM] | MIC [5] [µM] | MIC [6] [µM] | MIC [7] [µM] | MIC [8] [µM] | MIC [9] [µM] | MIC [10] [µM] | MIC [11] [µM] | MIC [12] [µM] | MIC [13] [µM] | MIC [14] [µM] | MIC [15] [µM] | Average MIC [16] [µM] | MIC [17] [µM] | MIC [18] [µM] | MIC [19] [µM] | MIC [20] [µM] | further results
1 | FFHHIARGIVHVGKTIHRLVTG [Pis-F6A] | 4.0 | 4.0 | 4.0 | 6.3 | 2.0 | 32 | 16 | 4.0 | 2.0 | 4.0 | 2.0 | 32 | 16 | 4.0 | 4.0 | 15 | 4.0 | 16 | 16 | 4.0 | MIC [21]: 16 µM; MIC [22]: 16 µM; MIC [23]: 32 µM; MIC [24]: 16 µM; MIC [25]: 16 µM; MIC [26]: 32 µM; MIC [27]: 4.0 µM; MIC [28]: 4.0 µM; MIC [29]: 4.0 µM; MIC [30]: 4.0 µM; MIC [31]: 32 µM; MIC [32]: 2.0 µM; MIC [33]: 8.0 µM; MIC [34]: 4.0 µM
2 | KFHHIFRGIVHVGKTIHRLVTG [Pis-F1K] | 2.0 | 2.0 | 2.0 | 2.6 | 2.0 | 4.0 | 8.0 | 4.0 | 4.0 | 2.0 | 1.0 | 8.0 | 2.0 | 2.0 | 2.0 | 4.7 | 2.0 | 8.0 | 4.0 | 2.0 | MIC [21]: 4.0 µM; MIC [22]: 4.0 µM; MIC [23]: 8.0 µM; MIC [24]: 4.0 µM; MIC [25]: 8.0 µM; MIC [26]: 8.0 µM; MIC [27]: 2.0 µM; MIC [28]: 2.0 µM; MIC [29]: 2.0 µM; MIC [30]: 2.0 µM; MIC [31]: 8.0 µM; MIC [32]: 2.0 µM; MIC [33]: 4.0 µM; MIC [34]: 2.0 µM
3 | FFHHIFRGIVHVGKTIHRLVTG [Pis-1, reference compound] | – | – | – | – | – | – | – | – | – | – | – | – | – | – | – | – | – | – | – | – | Survival rate of NIH3T3 cells ([35]; 6.25 µM peptide): 64%; Survival rate of NIH3T3 cells ([35]; 12.5 µM peptide): 49%; Survival rate of NIH3T3 cells ([35]; 25 µM peptide): 37%; Survival rate of NIH3T3 cells ([35]; 50 µM peptide): 11%; MHC (minimal peptide concentration that produced hemolysis) ([36]; pH 7.4): 1.6 µM; Hemolysis ([36]; peptide at its MIC, hRBCs): produced hemolysis even at its MIC
